Reference: US6448232B1, “Method of using dihydrochalcone derivatives to block glucose transfer” (priority 1999, dated 2002)

How the values were obtained:
Format in all cases: in vivo
[1] = Urine glucose after oral ingestion of phlorizin, no food versus in milk; conditions: 1 gm oral; for urine glucose: 85 kg male
[2] = Body weight during oral phlorizin three times a day on an empty stomach; conditions: for Weight after 3 days of phlorizin: 1.5 grams oral three times a day, 90 minutes before eating
Protocol: 1.5 grams phlorizin as a dry powder in a gelatin capsule was ingested orally three times a day, 90 minutes before eating on an empty stomach. Weight measured at the same time each day with a digital electronic scale. Normal dietary conditions were maintained during the time that the phlorizin was ingested.

[3] = Whole blood glucose after ingesting 100 g of carbohydrates, glucose oxidase reaction
Protocol: (§1) 1.5 g of phlorizin as a dry powder in a gelatin capsule was ingested one hour prior to ingesting 100 g of carbohydrates and compared to similar ingestion of carbohydrates without the prior consumption of the phlorizin. Glucose and insulin levels were measured just prior to and 30 and 60 minutes following carbohydrate ingestion and glucose levels were also measured 90 and 120 minutes after carbohydrate ingestion. Glucose levels were established by glucose oxidase reaction using whole blood and measuring the color generated with a hand-held spectrophotometer. Serum insulin was measured using commercially available immunoassay devices and methods.

[4] = Serum insulin after ingesting 100 g of carbohydrates, immunoassay; conditions: 1.5 g oral one hour prior to 100 g of carbohydrates
Protocol: as §1

O=C(CCc1ccc(O)cc1)c1c(O)cc(O)cc1O[C@@H]1O[C@H](CO)[C@@H](O)[C@H](O)[C@H]1O [phlorizin]
urine glucose ([1]; in milk, 0 minutes after ingestion): no food: <50 mg/dl in milk: <50 mg/dl | urine glucose ([1]; in milk, 90 minutes after ingestion): < 50 mg/dL | urine glucose ([1]; in milk, 150 minutes after ingestion): no food: 50 mg/dl in milk: <50 mg/dl | urine glucose ([1]; in milk, 210 minutes after ingestion): no food: <50 mg/dl in milk: <50 mg/dl | urine glucose ([1]; no food (empty stomach), 0 minutes after ingestion): no food: <50 mg/dl in milk: <50 mg/dl | urine glucose ([1]; no food (empty stomach), 90 minutes after ingestion): 500 mg/dL | urine glucose ([1]; no food (empty stomach), 150 minutes after ingestion): no food: 50 mg/dl in milk: <50 mg/dl | urine glucose ([1]; no food (empty stomach), 210 minutes after ingestion): no food: <50 mg/dl in milk: <50 mg/dl | effectiveness as a glucose blocker (urine glucose) ([1]; no food versus in milk, conclusion in words): effective as a glucose blocker only if it is ingested without food on an empty stomach | effect on body weight ([2]; 1.5 grams oral three times a day for 3 days, conclusion in words): effective in reducing body weight | Weight after 3 days of phlorizin ([2]; Experiment 1, pre-phlorizin weight 192.2 lbs.): 189.4 lbs. | Weight after 3 days of phlorizin ([2]; Experiment 2, pre-phlorizin weight 193.2 lbs.): 185.4 lbs. | Weight after 3 days of phlorizin ([2]; Experiment 3, pre-phlorizin weight 191.5 lbs.): 186.8 lbs. | Weight after 3 days of phlorizin ([2]; Experiment 4, pre-phlorizin weight 194.4 lbs.): 189.0 lbs. | GLUCOSE ([3]; 1.5 g oral one hour prior to 100 g of carbohydrates, 0 minutes (just prior to carbohydrate ingestion)): 90 mg/dL | GLUCOSE ([3]; 1.5 g oral one hour prior to 100 g of carbohydrates, 30 minutes after carbohydrate ingestion): 146 mg/dL | GLUCOSE ([3]; 1.5 g oral one hour prior to 100 g of carbohydrates, 60 minutes after carbohydrate ingestion): 144 mg/dL | GLUCOSE ([3]; 1.5 g oral one hour prior to 100 g of carbohydrates, 90 minutes after carbohydrate ingestion): 108 mg/dL | GLUCOSE ([3]; 1.5 g oral one hour prior to 100 g of carbohydrates, 120 minutes after carbohydrate ingestion): 117 mg/dL | effect on postprandial rise in glucose and insulin levels ([3]; 1.5 g oral one hour prior to 100 g of carbohydrates, conclusion in words): able to decrease the postpandrial rise in glucose and insulin levels | prevention of reactive hypoglycemia ([3]; glucose levels at 90 and 120 minutes with and without phlorizin, conclusion in words): effective in preventing reactive hypoglycemia | INSULIN ([4]; 0 minutes (just prior to carbohydrate ingestion)): 5 microIU/ml | INSULIN ([4]; 30 minutes after carbohydrate ingestion): 34 microIU/ml | INSULIN ([4]; 60 minutes after carbohydrate ingestion): 28 microIU/ml
